biological target: Stromelysin (Homo sapiens, UniProt P08254); test: MMP inhibition, particle concentration fluorescence assay (stromelysin); assay type: biochemical; settings: in vitro; fluorescein/biotin substrate; MMP buffer pH 7.5; room temperature
Protocol: Inhibitory activity is evaluated in one or more of the MMP enzymes (stromelysin, gelatinase, and collagenase) in vitro using particle concentration fluorescence assay. An inhibitor binds to MMP enzymes which prevents the degradation of a substrate by stromelysin, gelatinase, or coilagenase. The substrate has attached to it a fluorescein and a biotin moiety. The intact substrate then binds to an avidin-coated particle via the biotin moiety. Once the particle is washed and dried, a fluorescent signal is generated since the fluorescent group is attached to the particle. Without an inhibitor present, the substrate is degraded by MMP enzymes and the fluorescein group is removed, therefore, no fluorescent signal can be detected. Testing compounds are dissolved in DMSO to the desired concentration, then the solutions are diluted to 1:5 with MMP buffer (50 mM Tris-HCl, pH 7.5; 150 mM NaCl; 0.02% NaN3). Serial two-fold dilutions of each compound are prepared. A concentrated, activated enzyme solution is transferred into each plate of the testing compounds, and the mixture is incubated at room temperature for 15 minutes. Thawed MMP substrate is then added into all plates, and the plates are incubated in the dark for 1-3 hours at room temperature. At this point, the substrate mixture is mixed with 0.1% avidin-coated polystyrene particles. After 15 minutes, the fluorescence values are measured following filtration and washing of the beads. Ki values are then calculated.

Sequence of Stromelysin (P08254 100-477): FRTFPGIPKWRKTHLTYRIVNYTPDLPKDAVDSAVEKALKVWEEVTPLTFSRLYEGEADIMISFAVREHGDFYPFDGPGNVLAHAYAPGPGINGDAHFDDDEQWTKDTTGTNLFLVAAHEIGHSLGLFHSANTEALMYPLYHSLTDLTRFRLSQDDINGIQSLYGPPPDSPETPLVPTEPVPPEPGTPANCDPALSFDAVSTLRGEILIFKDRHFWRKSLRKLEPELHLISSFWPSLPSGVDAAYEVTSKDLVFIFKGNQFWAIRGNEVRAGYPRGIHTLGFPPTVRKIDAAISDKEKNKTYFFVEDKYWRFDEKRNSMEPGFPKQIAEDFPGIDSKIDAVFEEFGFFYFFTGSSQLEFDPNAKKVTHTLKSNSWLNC

| SMILES | Ki [nM] |
| --- | --- |
| COc1ccc(S(=O)(=O)CC(O)(CS(=O)(=O)c2ccc(-c3ccccc3)cc2)C(=O)NO)cc1 (racemic) [Example 1, N-Hydroxy-2-hydroxy-2-[(4-methoxybenzenesulfonyl)methyl]-3-(4-phenylbenzenesulfonyl)-propionamide] | 74 |
| CCCCc1ccc(S(=O)(=O)CC(O)(CS(=O)(=O)c2ccc(OC)cc2)C(=O)NO)cc1 (stereo not shown) [Example 3, N-Hydroxy-2-hydroxy-2-[(4-methoxybenzenesulfonyl)methyl]-3-(4-n-butylbenzenesulfonyl)-propionamide] | 46 |
| COc1ccc(S(=O)(=O)CC(O)(CS(=O)(=O)c2ccc(-c3ccccc3)cc2)C(=O)NO)cc1 (single isomer, unassigned) [Example 1, Enantiomer B, N-Hydroxy-2-hydroxy-2-[(4-methoxybenzenesulfonyl)methyl]-3-(4-phenylbenzenesulfonyl)-propionamide] | 80 |
| COc1ccc(S(=O)(=O)CC(O)(CS(=O)(=O)c2ccc(-c3ccccc3)cc2)C(=O)NO)cc1 (single isomer, unassigned) [Example 1, Enantiomer A, N-Hydroxy-2-hydroxy-2-[(4-methoxybenzenesulfonyl)methyl]-3-(4-phenylbenzenesulfonyl)-propionamide] | 21 |
| COc1ccc(S(=O)(=O)CC(O)(CS(=O)(=O)c2ccc(F)cc2)C(=O)NO)cc1 (stereo not shown) [Example 2, N-Hydroxy-2-hydroxy-2-[(4-methoxybenzenesulfonyl)methyl]-3-(4-fluorobenzenesulfonyl)-propionamide] | 180 |

Other lines, results leading:

| Ki [nM] | SMILES |
| --- | --- |
| 350 | COc1ccc(S(=O)(=O)CC(O)(CNC(=O)C2CCCC2)C(=O)NO)cc1 (stereo not shown) [Example 6, N-Hydroxy-2-hydroxy-2-[(4-methoxybenzenesulfonyl)methyl]-3-[N-(cyclopentylcarbonyl)amino]-propionamide] |
| 240 | COc1ccc(S(=O)(=O)CC(O)(CNC(=O)c2ccccc2)C(=O)NO)cc1 (stereo not shown) [Example 5] |
| 280 | COc1ccc(C(=O)NCC(O)(CS(=O)(=O)c2ccc(OC)cc2)C(=O)NO)cc1 (stereo not shown) [Example 7, N-Hydroxy-2-hydroxy-2-[(4-methoxybenzenesulfonyl)methyl]-3-(N-(4-methoxybenzenecarbonyl)amino)-propionamide] |
| 39 | COc1ccc(S(=O)(=O)CC(O)(CS(=O)(=O)c2ccc(OC)cc2)C(=O)NO)cc1 [Example 4] |

system: not given; test: not given; settings: not given

| melting point [°C] | SMILES |
| --- | --- |
| 75 to 80 | COc1ccc(S(=O)(=O)CC(O)(CS(=O)(=O)c2ccc(OC)cc2)C(=O)NO)cc1 [Example 4] |

From patent US6437177B1, “α-hydroxy, -amino, and halo derivatives of β-sulfonyl hydroxamic acids as matrix metallopropteinases inhibitors” (priority 1997, dated 2002)
